Where two headings read alike, the source gives them in different places.
Experiments:
[1] = biological target: KRAS G12D/SOS/c-Raf complex (Homo sapiens (Human), UniProt P01116, G12D); assay: KRAS G12D/SOS/c-Raf complex formation inhibitory activity (TR-FRET); assay type: biochemical; conditions: human recombinant proteins, 1 hour at room temperature, read-out: IC50, KRAS G12D/SOS/c-Raf complex formation inhibition
Protocol: Using human recombinant KRAS G12D, SOS and c-Raf proteins, the inhibitory activity of subject compounds on the complex formation of the proteins was examined by a time-resolved fluorescence resonance energy transfer (TR-FRET) method.
Biotinylated AviTag-KRAS G12D (amino acid region of 1-185, GDP) (2.5 μL; 400 nM) and subject compounds dissolved in an assay buffer (50 mM HEPES, 150 mM NaCl, 5 mM MgCl2, 0.05% Tween 20, pH 7.0) were added to a 384-well plate (from Corning) in a liquid volume of 2.5 μL at 40,000 nM to 40 nM. Son of Sevenless (SOS) (amino acid region of 564-1049, 2.5 μL; 1.3 μM) and c-Raf (amino acid region of 51-131) GST (2.5 μL; 130 nM) containing GTP (from Sigma-Aldrich; 2 μM) were added to the plate, and the plate was allowed to stand for 1 hour at room temperature. Then, a mixture liquid (10 μL) of LANCE Ulight-anti-GST (from PerkinElmer; 120 nM) and LANCE Eu-W1024 labeled Streptoavidin (from PerkinElmer; 100 ng/mL) was added, and the 620-nm and 665-nm fluorescence intensities were measured using EnVision 2104 (from PerkinElmer) under the conditions of an excitation wavelength of 337 nm. After standardizing the values with the fluorescence intensity at a reference wavelength of 620 nm, the 50% inhibitory concentrations (IC50) were calculated by Sigmoid-Emax model nonlinear regression analysis with the signaling value in treatment with the solvent taken as 0% inhibition and with the signaling value without the addition of GTP taken as 100% inhibition.

[2] = test system: KRAS G12D mutant-positive pancreatic cancer line AsPC-1; assay: Non-anchorage-dependent cell growth inhibitory activity in AsPC-1 (spheroid 3D culture); assay type: cell-based; conditions: Homo sapiens, ASPC1, 144 h, read-out: IC50, non-anchorage-dependent cell growth inhibition
Protocol: The non-anchorage-dependent cell growth inhibitory activities of subject compounds were evaluated by spheroid 3D cell culture.
AsPC-1 cells were seeded at 36 μL/well on a low-cell-adhesive round bottom 384-well plate (Prime Surface: from Sumitomo Bakelite) to give 5×10^2 cells per well. The cell culture was performed under the same conditions as in the Test Example 2.
The next day, the subject compounds (6 points having final concentrations in the range of 10 μM to 3.0 nM) and DMSO, which was the solvent for the subject compounds, as a negative control were diluted 100-fold with a fresh medium and were each added at 4 μL per well. After culturing in the presence of 5% CO2 at 37° C. for six days, CellTiter Glo 2.0 (from Promega) was added at 20 μL per well. After stirring with a plate mixer (from FINEPCR) at normal temperature for an hour, the luminescent signals were measured with ARVO X3 (from PerkinElmer).
With the signaling value in treatment with DMSO taken as 0% inhibition and with the signaling value in the medium alone without cells taken as 100% inhibition, the 50% inhibition values (IC50) were calculated by Sigmoid-Emax model nonlinear regression analysis.

[3] = test system: ERK phosphorylation (Thr202/Tyr204) in KRAS G12D mutant-positive pancreatic cancer line AsPC-1; assay: ERK phosphorylation inhibitory activity in AsPC-1 (cell ELISA); assay type: cell-based; conditions: Homo sapiens, ASPC1; AsPC-1 cells, 2 hours culture, cell ELISA; read-out: IC50, ERK phosphorylation inhibition
Protocol: The ERK phosphorylation inhibitory activities of subject compounds were evaluated by measuring phosphorylation of the 202th threonine (Thr202) and the 204th tyrosine (Tyr204) of ERK located downstream of the KRAS signal by cell ELISA.
AsPC-1 cells (ATCC, CRL-1682) were seeded at 36 μL/well on a 384-well plate (from Greiner bio-one) to give 2.0×10^4 cells per well. As for the cell culture conditions, RPMI-1640 medium (from Sigma-Aldrich) containing 10% fetal bovine serum (from GE Life Sciences) was used in the presence of 5% CO2 at 37° C.
The next day, the subject compounds (6 points having final concentrations in the range of 10 μM to 0.3 nM), trametinib (MEK inhibitor) of a final concentration of 1 μM as a positive control and DMSO, which was the solvent for the subject compounds, as a negative control were diluted 100-fold with a fresh medium and were each added at 4 μL per well, followed by culturing for 2 hours. After culturing, a 30% glyoxal solution (40% glyoxal [from Wako] was diluted with Phosphate Buffered Saline [PBS; from Wako) was quickly added at 30 μL per well, and the plate was allowed to stand for an hour at room temperature to thus immobilize the cells. Then, the plate was centrifuged (110× g, seven seconds, hereinafter centrifugation was performed under the same conditions unless otherwise specified) to remove the supernatant, and 0.1% Triton X-100 (from Amersham Biosciences)—containing PBS was added at 20 μL per well. After allowing the plate to stand for 10 minutes at room temperature, the supernatant was removed by centrifugation, and the same operation was further repeated. Next, 0.5% sodium dodecyl sulfate (SDS; from Invitrogen)-containing PBS was added at 20 μL per well. The plate was allowed to stand at room temperature for 30 minutes and was then centrifuged to remove the supernatant. Subsequently, a blocking solution (Intercept Blocking Buffer; from LI-COR Biosciences) was added at 20 μL per well, and the plate was allowed to stand for an hour at room temperature. The supernatant was removed by centrifugation, and an ERK (Thr202/Tyr204) phosphorylation antibody (Phospho-p44/42 MAPK (Erk 1/2) (Thr202/Tyr204) (D13.14.4E) XP Rabbit mAb; from Cell Signaling Technology) diluted 2,500-fold with the blocking solution was added at 10 μL per well as a primary antibody. The plate was allowed to stand at 4° C. overnight.
The next day, the plate was centrifuged to remove the supernatant, and 0.05% Tween-20-containing PBS (from Thermo Scientific; 20× PBS Tween-20 was diluted 20-fold with ion exchange water and used) was added at 20 μL per well. The supernatant was removed by centrifugation to thus wash each well. The washing was performed three times in total. After washing, an IRDye 800CW Goat anti-Rabbit IgG (from LI-COR Biosciences) diluted 1,000-fold with the blocking solution was added at 10 μL per well as a secondary antibody, and the plate was allowed to stand for an hour at room temperature. The plate was centrifuged to remove the supernatant, and each well was washed three times with 0.05% Tween-20-containing PBS in the same manner as after the primary antibody reaction. Centrifugation after the third washing was performed at 171×g for 17 seconds. After removing the supernatant, the plate was dried as it was with air at room temperature for three hours or more, and the 800-nm fluorescent signals were measured with Aerius (from LI-COR Biosciences).
With the signaling value at the time of addition of DMSO taken as 0% inhibition and with the signaling value at the time of addition of […] trametinib taken as 100% inhibition, the 50% inhibition values (IC50) were calculated by Sigmoid-Emax model nonlinear regression analysis.

[4] = AsPC-1 spheroid 3D culture, six days, CellTiter Glo 2.0

Chain of KRAS G12D/SOS/c-Raf complex (P01116 other isoform, or with tags, fused parts or gaps G12D): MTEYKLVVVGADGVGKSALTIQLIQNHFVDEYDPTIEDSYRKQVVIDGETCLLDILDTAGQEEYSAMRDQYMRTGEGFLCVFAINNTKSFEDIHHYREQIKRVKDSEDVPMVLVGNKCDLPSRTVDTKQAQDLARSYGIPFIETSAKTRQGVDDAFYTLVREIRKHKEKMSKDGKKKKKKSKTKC

| SMILES | IC50 [1] | IC50 [2, 4] | IC50 [3] | IC50 [2] |
| --- | --- | --- | --- | --- |
| Cc1c(F)cc2[nH]ncc2c1-c1c(C2CC2)cc2c(N3C[C@@H]4C[C@H]3CN4)nc(OC3CCOCC3)nc2c1OCc1ccc(Cn2c(=O)n(C)c3nccnc32)cc1 (single isomer, unassigned) [Example 1] | 44 nM | 68 nM |  |  |
| Cc1c(F)cc2[nH]ncc2c1-c1c(C2CC2)cc2c(N3C[C@@H]4C[C@H]3CN4)nc(OC3CCOCC3)nc2c1OCc1ccc(CN2CCN(C)CC2=O)cc1 [Example 2, 1-({4-[({6-cyclopropyl-4-[(1S,4S)-2,5-diazabicyclo[2.2.1]heptan-2-yl]-7-(6-fluoro-5-methyl-1H-indazol-4-yl)-2-[(oxan-4-yl)oxy]quinazolin-8-yl}oxy)methyl]phenyl}methyl)-4-methylpiperazin-2-one] | 96 nM | 166 nM | 49 nM |  |
| Cc1c(F)cc2[nH]ncc2c1-c1c(C2CC2)cc2c(N3C[C@@H]4C[C@H]3CN4)nc(OC3CCOCC3)nc2c1OCc1ccc(Cc2ncn(C3COC3)n2)cc1 [Example 3, 6-cyclopropyl-4-[(1S,4S)-2,5-diazabicyclo[2.2.1]heptan-2-yl]-7-(6-fluoro-5-methyl-1H-indazol-4-yl)-2-[(oxan-4-yl)oxy]-8-[(4-{[1-(oxetan-3-yl)-1H-1,2,4-triazol-3-yl]methyl}phenyl)methoxy]quinazoline] | 75 nM | 128 nM | 55 nM |  |
| Cc1c(F)cc2[nH]ncc2c1-c1c(C2CC2)cc2c(N3C[C@@H]4C[C@H]3CN4)nc(OC3CCOCC3)nc2c1OCc1ccc(CN2CCN(CC3CC3)CC2=O)cc1 [Example 7, 1-({4-[({6-cyclopropyl-4-[(1S,4S)-2,5-diazabicyclo[2.2.1]heptan-2-yl]-7-(6-fluoro-5-methyl-1H-indazol-4-yl)-2-[(oxan-4-yl)oxy]quinazolin-8-yl}oxy)methyl]phenyl}methyl)-4-(cyclopropylmethyl)piperazin-2-one] | 105 nM |  |  | 80 nM |
| CCc1nc(Cc2ccc(COc3c(-c4c(C)c(F)cc5[nH]ncc45)c(C4CC4)cc4c(N5C[C@@H]6C[C@H]5CN6)nc(OC5CCOCC5)nc34)cc2)nn1C [Example 15, 6-cyclopropyl-4-[(1S,4S)-2,5-diazabicyclo[2.2.1]heptan-2-yl]-8-({4-[(5-ethyl-1-methyl-1H-1,2,4-triazol-3-yl)methyl]phenyl}methoxy)-7-(6-fluoro-5-methyl-1H-indazol-4-yl)-2-[(oxan-4-yl)oxy]quinazoline] | 88 nM |  |  | 152 nM |
| Cc1c(F)cc2[nH]ncc2c1-c1c(C2CC2)cc2c(N3C[C@@H]4C[C@H]3CN4)nc(OC3CCOCC3)nc2c1OCc1ccc(Cc2nc3n(n2)CCC3)cc1 [Example 18, 6-cyclopropyl-4-[(1S,4S)-2,5-diazabicyclo[2.2.1]heptan-2-yl]-8-({4-[(6,7-dihydro-5H-pyrrolo[1,2-b][1,2,4]triazol-2-yl)methyl]phenyl}methoxy)-7-(6-fluoro-5-methyl-1H-indazol-4-yl)-2-[(oxan-4-yl)oxy]quinazoline] | 92 nM |  |  | 192 nM |
| Cc1c(F)cc2[nH]ncc2c1-c1c(C2CC2)cc2c(N3C[C@@H]4C[C@H]3CN4)nc(OC3CCOCC3)nc2c1OCc1ccc(Cc2ncn(C3CCOCC3)n2)cc1 [Example 19, 6-cyclopropyl-4-[(1S,4S)-2,5-diazabicyclo[2.2.1]heptan-2-yl]-7-(6-fluoro-5-methyl-1H-indazol-4-yl)-2-[(oxan-4-yl)oxy]-8-[(4-{[1-(oxan-4-yl)-1H-1,2,4-triazol-3-yl]methyl}phenyl)methoxy]quinazoline] | 65 nM |  |  | 189 nM |
| Cc1c(F)cc2[nH]ncc2c1-c1c(C2CC2)cc2c(N3C[C@@H]4C[C@H]3CN4)nc(OC3CCOCC3)nc2c1OCc1ccc(Cc2cn3ccncc3n2)cc1 [Example 20, 6-cyclopropyl-4-[(1S,4S)-2,5-diazabicyclo[2.2.1]heptan-2-yl]-7-(6-fluoro-5-methyl-1H-indazol-4-yl)-8-({4-[(imidazo[1,2-a]pyrazin-2-yl)methyl]phenyl}methoxy)-2-[(oxan-4-yl)oxy]quinazoline] | 70 nM |  |  | 138 nM |
| Cc1c(F)cc2[nH]ncc2c1-c1c(C2CC2)cc2c(N3C[C@@H]4C[C@H]3CN4)nc(OC3CCOCC3)nc2c1OCc1ccc(Cc2nc(C3CC3)n(C)n2)cc1 [Example 22, 6-cyclopropyl-8-({4-[(5-cyclopropyl-1-methyl-1H-1,2,4-triazol-3-yl)methyl]phenyl}methoxy)-4-[(1 S,4S)-2,5-diazabicyclo[2.2.1]heptan-2-yl]-7-(6-fluoro-5-methyl-1H-indazol-4-yl)-2-[(oxan-4-yl)oxy]quinazoline] | 161 nM | 209 nM |  |  |
| Cc1c(F)cc2[nH]ncc2c1-c1c(C2CC2)cc2c(N3C[C@@H]4C[C@H]3CN4)nc(OC3CCOCC3)nc2c1OCc1ccc(CN2C(=O)CN(C)c3ncccc32)cc1 [Example 23, 1-({4-[({6-cyclopropyl-4-[(1S,4S)-2,5-diazabicyclo[2.2.1]heptan-2-yl]-7-(6-fluoro-5-methyl-1H-indazol-4-yl)-2-[(oxan-4-yl)oxy]quinazolin-8-yl}oxy)methyl]phenyl}methyl)-4-methyl-3,4-dihydropyrido[2,3-b]pyrazin-2(1H)-one] | 68 nM |  |  |  |
